Laboratory results as given in ChEMBL document CHEMBL1909046, “DrugMatrix in vitro pharmacology data”.

What was measured:
[1] = biological target: T1, Muscarinic acetylcholine receptor M4 (Homo sapiens, UniProt P08173); type: cell membranes, CHO-K1, Membrane; details: cho-k1; note: in other assays of this panel Not Active means under 50% inhibition at 10 µM
T1 sequence (P08173 whole entry): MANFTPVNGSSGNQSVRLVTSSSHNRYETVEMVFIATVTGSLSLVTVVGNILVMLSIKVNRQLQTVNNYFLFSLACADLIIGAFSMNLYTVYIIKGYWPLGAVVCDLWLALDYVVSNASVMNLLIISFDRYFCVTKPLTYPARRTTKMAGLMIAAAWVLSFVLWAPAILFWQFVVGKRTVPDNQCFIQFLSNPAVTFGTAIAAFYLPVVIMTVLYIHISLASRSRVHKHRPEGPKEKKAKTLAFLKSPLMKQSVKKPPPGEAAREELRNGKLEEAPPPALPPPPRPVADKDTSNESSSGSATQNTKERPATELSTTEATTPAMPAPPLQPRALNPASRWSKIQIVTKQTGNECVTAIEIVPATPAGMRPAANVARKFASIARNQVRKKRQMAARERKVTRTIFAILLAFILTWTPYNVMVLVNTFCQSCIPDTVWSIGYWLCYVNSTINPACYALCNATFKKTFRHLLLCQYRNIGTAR

Progesterone receptor = biological target: T2, Progesterone receptor (Bos taurus, UniProt Q690N0); assay: DRUGMATRIX: Progesterone radioligand binding (ligand: [3H] R-5020); type: tissue-based, Uterus; details: Not Active = under 50% inhibition at 10 µM
T2 sequence (Q690N0 whole entry): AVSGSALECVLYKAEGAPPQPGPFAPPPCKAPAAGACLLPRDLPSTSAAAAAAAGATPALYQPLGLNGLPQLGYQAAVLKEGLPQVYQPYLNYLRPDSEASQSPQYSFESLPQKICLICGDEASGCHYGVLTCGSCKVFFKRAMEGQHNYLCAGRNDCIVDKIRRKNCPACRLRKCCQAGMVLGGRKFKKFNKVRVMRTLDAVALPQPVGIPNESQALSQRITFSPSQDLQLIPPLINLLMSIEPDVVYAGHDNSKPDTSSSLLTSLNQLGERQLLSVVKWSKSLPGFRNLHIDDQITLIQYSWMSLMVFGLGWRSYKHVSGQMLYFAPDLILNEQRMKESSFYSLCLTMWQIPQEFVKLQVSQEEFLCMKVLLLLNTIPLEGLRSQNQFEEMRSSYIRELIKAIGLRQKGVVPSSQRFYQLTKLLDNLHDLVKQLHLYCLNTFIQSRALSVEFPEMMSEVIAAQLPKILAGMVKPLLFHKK

[2] = DRUGMATRIX: Potassium Channel [KATP] radioligand binding (ligand: [3H] Glyburide); type: cell membranes, Membrane; details: hit-t15; Not Active = under 50% inhibition at 10 µM
Leukotriene C4 synthase = biological target: T3, Leukotriene C4 synthase (Cavia porcellus, UniProt A6XA80); type: tissue-based, Lung;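 note: enzyme inhibition assay of leukotriene C4 synthase, using LTA4 as the substrate; in other assays of this panel Not Active means under 50% inhibition at 10 µM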
T3 sequence (A6XA80 whole entry): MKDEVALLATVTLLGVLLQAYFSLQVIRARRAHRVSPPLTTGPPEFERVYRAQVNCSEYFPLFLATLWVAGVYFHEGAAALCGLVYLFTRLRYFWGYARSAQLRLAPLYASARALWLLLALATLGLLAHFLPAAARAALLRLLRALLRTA

[3] = biological target: Mitogen-activated protein kinase 3 (Homo sapiens, UniProt P27361); assay: DRUGMATRIX: Protein Serine/Threonine Kinase, ERK1 enzyme inhibition (substrate: Myelin Basic Protein); design: species or system Escherichia coli; details: Not Active = under 50% inhibition at 10 µM
Chain of Mitogen-activated protein kinase 3 (P27361 whole entry): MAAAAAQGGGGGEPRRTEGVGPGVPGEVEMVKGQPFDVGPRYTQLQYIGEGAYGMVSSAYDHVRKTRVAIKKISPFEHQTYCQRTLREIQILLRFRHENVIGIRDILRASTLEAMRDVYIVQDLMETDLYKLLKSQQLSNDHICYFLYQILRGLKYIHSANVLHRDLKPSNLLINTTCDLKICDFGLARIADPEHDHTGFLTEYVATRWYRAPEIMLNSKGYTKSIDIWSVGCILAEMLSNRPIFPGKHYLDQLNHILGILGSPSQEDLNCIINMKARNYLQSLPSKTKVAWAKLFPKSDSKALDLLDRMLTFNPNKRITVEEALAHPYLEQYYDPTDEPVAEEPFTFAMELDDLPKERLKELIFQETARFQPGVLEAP

Adenosine receptor A2a = Adenosine receptor A2a (Homo sapiens, UniProt P29274); assay: DRUGMATRIX: Adenosine A2A radioligand binding (ligand: […]); type: cell membranes, HEK293, Membrane; details: hek293; Not Active = under 50% inhibition at 10 µM
Chain of Adenosine receptor A2a (P29274 whole entry): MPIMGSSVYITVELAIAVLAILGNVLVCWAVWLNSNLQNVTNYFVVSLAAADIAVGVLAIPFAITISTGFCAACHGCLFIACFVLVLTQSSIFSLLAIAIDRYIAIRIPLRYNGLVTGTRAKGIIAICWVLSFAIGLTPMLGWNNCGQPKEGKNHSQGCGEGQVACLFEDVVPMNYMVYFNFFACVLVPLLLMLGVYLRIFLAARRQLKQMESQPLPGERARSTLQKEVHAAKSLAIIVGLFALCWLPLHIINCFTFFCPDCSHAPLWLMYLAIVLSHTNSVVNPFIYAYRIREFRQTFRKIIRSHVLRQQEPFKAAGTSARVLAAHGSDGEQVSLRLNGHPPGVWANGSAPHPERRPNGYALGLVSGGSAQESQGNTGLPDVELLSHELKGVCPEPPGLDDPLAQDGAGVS

[4] = biological target: Prostaglandin G/H synthase 1 (Homo sapiens, UniProt P23219); assay: biochemical; type: tissue-based, Platelet;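 note: inhibition of COX-1 enzyme activity, with arachidonic acid supplied as substrate; in other assays of this panel Not Active means under 50% inhibition at 10 µM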
Chain of Prostaglandin G/H synthase 1 (P23219 whole entry): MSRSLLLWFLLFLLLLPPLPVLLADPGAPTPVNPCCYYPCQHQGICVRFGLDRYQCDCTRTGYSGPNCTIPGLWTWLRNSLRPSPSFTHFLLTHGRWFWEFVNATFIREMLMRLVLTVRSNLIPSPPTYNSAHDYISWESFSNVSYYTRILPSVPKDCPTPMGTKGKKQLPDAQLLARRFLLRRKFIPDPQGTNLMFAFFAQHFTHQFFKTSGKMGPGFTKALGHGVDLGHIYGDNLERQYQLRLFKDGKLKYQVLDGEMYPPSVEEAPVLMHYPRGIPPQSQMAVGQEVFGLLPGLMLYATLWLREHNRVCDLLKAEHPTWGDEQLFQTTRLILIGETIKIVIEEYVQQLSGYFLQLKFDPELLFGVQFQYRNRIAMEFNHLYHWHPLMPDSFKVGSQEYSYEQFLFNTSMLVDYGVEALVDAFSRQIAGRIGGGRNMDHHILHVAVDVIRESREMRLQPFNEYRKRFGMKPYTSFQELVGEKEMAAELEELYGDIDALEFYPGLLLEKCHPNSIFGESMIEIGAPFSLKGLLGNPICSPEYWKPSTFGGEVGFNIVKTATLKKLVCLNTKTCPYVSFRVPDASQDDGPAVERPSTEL

Glycine receptor = Glycine receptor (Rattus norvegicus, UniProt P22771+P24524+P07727+P20781); type: cell membranes, Wistar, Spinal cord, Membrane; note: in other assays of this panel Not Active means under 50% inhibition at 10 µM
[5] = DRUGMATRIX: Phosphodiesterase PDE4 enzyme inhibition (substrate: [3H]cAMP + cAMP); details: u-937; Not Active = under 50% inhibition at 10 µM
[6] = biological target: Beta-2 adrenergic receptor (Homo sapiens, UniProt P07550); assay: DRUGMATRIX: Adrenergic beta2 radioligand binding (ligand: [3H] CGP-12177); type: cell membranes, Membrane; details: cho; Not Active = under 50% inhibition at 10 µM
Chain of Beta-2 adrenergic receptor (P07550 whole entry): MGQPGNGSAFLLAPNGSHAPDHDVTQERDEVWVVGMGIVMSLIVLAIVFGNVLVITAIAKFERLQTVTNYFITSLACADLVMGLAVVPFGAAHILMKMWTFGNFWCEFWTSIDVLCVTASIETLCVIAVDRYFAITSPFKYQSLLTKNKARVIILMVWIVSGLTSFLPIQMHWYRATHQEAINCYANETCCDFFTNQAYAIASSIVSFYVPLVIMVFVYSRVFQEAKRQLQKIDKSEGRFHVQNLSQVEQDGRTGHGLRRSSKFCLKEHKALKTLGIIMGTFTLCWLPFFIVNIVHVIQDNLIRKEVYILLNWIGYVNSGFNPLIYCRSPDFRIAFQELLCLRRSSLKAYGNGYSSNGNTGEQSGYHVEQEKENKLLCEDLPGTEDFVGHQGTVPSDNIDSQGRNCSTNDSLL

[7] = biological target: T4, Alpha-2C adrenergic receptor (Homo sapiens, UniProt P18825); assay: DRUGMATRIX: Adrenergic Alpha-2C radioligand binding (ligand: [3H] MK-912); type: cell membranes, Sf9, Membrane; details: sf9
T4 sequence (P18825 whole entry): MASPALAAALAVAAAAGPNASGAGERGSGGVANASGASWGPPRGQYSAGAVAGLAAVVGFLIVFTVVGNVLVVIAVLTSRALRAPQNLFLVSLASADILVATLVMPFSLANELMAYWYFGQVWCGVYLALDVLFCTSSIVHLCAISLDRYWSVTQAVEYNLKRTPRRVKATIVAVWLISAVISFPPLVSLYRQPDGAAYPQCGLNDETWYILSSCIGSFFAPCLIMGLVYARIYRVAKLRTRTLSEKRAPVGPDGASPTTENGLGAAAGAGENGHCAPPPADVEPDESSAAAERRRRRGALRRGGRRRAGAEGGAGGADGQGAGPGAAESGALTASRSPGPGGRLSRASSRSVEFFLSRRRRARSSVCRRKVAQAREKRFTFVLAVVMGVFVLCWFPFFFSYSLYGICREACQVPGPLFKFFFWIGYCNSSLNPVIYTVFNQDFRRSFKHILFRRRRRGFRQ

| SMILES | IC50 [1] | IC50 (Progesterone receptor) | IC50 [2] | Ki [2] | IC50 (Leukotriene C4 synthase) | IC50 [3] | IC50 (Adenosine receptor A2a) | IC50 ([4]; platelet) | IC50 (Glycine receptor) | IC50 [5] | Ki [5] | IC50 [6] | IC50 [7] | IC50 ([4]; read-out: IC50) [nM] |
| --- | --- | --- | --- | --- | --- | --- | --- | --- | --- | --- | --- | --- | --- | --- |
| CC(C)c1nc(CN(C)C(=O)N[C@H](C(=O)N[C@@H](Cc2ccccc2)C[C@H](O)[C@H](Cc2ccccc2)NC(=O)OCc2cncs2)C(C)C)cs1 [RITONAVIR] | Not Active | Not Active | Not Active | Not Active | Not Active | Not Active | Not Active | Not Active | Not Active | Not Active | Not Active | Not Active | Not Active | – |
| CC(C)CC(N(C)C)C1(c2ccc(Cl)cc2)CCC1 (stereo unspecified) [SIBUTRAMINE] | Not Active | Not Active | Not Active | Not Active | Not Active | Not Active | Not Active | Not Active | Not Active | Not Active | Not Active | Not Active | Not Active | – |
| [H]/N=C(/N)N[C@H]1[C@H](O)[C@@H](O)[C@H](O[C@@H]2O[C@@H](C)[C@](O)(C=O)[C@H]2O[C@@H]2O[C@@H](CO)[C@H](O)[C@@H](O)[C@@H]2NC)[C@@H](N/C(N)=N\[H])[C@@H]1O [STREPTOMYCIN] | Not Active | Not Active | Not Active | Not Active | Not Active | Not Active | Not Active | Not Active | Not Active | Not Active | Not Active | Not Active | Not Active | – |
| COc1cc(NS(=O)(=O)c2ccc(N)cc2)nc(OC)n1 [SULFADIMETHOXINE] | Not Active | Not Active | Not Active | Not Active | Not Active | Not Active | Not Active | Not Active | Not Active | Not Active | Not Active | Not Active | Not Active | – |
| Cc1cc(C)nc(NS(=O)(=O)c2ccc(N)cc2)n1 [SULFAMETHAZINE] | Not Active | Not Active | Not Active | Not Active | Not Active | Not Active | Not Active | Not Active | Not Active | Not Active | Not Active | Not Active | Not Active | – |
| C[C@]1(Cn2ccnn2)[C@H](C(=O)O)N2C(=O)C[C@H]2S1(=O)=O [TAZOBACTAM] | Not Active | Not Active | Not Active | Not Active | Not Active | Not Active | Not Active | Not Active | Not Active | Not Active | Not Active | Not Active | Not Active | – |
| CN1C(C(=O)Nc2ccccn2)=C(O)c2sccc2S1(=O)=O [TENOXICAM] | Not Active | Not Active | Not Active | Not Active | Not Active | Not Active | Not Active | – | Not Active | Not Active | Not Active | Not Active | Not Active | 1140 |
